Laboratory results reported in patent publication US6599920B2, “Naphthalene compounds, intermediates, formulations, and methods” (Eli Lilly and Company, priority 1996, dated 2003).
Marks after values point to notes of the source that are not given here.

Experiments:
ovariectomized rats = experiment: Ovariectomized rat model of postmenopausal hyperlipidemia (serum cholesterol, uterine weight, uterine eosinophil peroxidase); assay type: in vivo
Method: Experimental models of postmenopausal hyperlipidemia are known in the art. […] to this invention is the ovariectomized rat model which is detailed in U.S. Pat. No. 5,464,845. Data presented in Table 1 show comparative results among ovariectomized rats, rats treated with 17-α-ethynyl estradiol (EE2), and rats treated with certain compounds of this invention. […] This uterine response to estrogen is well recognized in the art. As expressed in the data below, estrogenicity also was assessed by evaluating the response of eosinophil infiltration into the uterus. […] The data presented in Table 1 reflect the response per treatment group. In accordance with the above procedures, compounds of the present invention and ethynyl estradiol (EE2) in 20% hydroxypropyl β-cyclodextrin are orally administered to test animals.

[1] = tested on: MCF-7 breast adenocarcinoma cells; experiment: MCF-7 Proliferation Assay; assay type: cell-based; details: Homo sapiens, MCF7; MCF-7 cells, 48 hours with drug; read-out: IC50, inhibition of tumor cell growth (tritiated thymidine uptake)
Method: MCF-7 breast adenocarcinoma cells (ATCC HTB 22) were maintained in MEM (minimal essential medium, phenol red-free, Sigma, St. Louis, Mo.) supplimented with 10% fetal bovine serum (FBS) (V/V), L-glutamine (2 mM), sodium pyruvate (1 mM), HEPES {(N-[2-hydroxyethyl]piperazine-N′-[2-ethanesulfonic acid]10 mm}, non-essential amino acids and bovine insulin (1 ug/mL) (maintenance medium). Ten days prior to assay, MCF-7 cells were switched to maintenance medium supplemented with 10% dextran coated charcoal stripped fetal bovine serum (DCC-FBS) assay medium) in place of 10% FBS to deplete internal stores of steroids. MCF-7 cells were removed from maintenance flasks using cell dissociation medium (Ca++/Mg++ free HBSS (phenol red-free) supplemented with 10 mM HEPES and 2 mM EDTA). Cells were washed twice with assay medium and adjusted to 80,000 cells/mL. Approximately […] (8,000 cells) were added to flat-bottom microculture wells (Costar 3596) and incubated at 37° C. in a 5% CO2 humidified incubator for 48 hours to allow for cell adherence and equilibration after transfer. Serial dilutions of drugs or DMSO as a diluent control were prepared in assay medium and […] to triplicate microcultures […]. […] Samples were counted by liquid scintillation using a Wallac BetaPlace β counter. […]

[2] = 0.1 mg/kg PO, in 20% hydroxypropyl β-cyclodextrin

SMILES | Serum cholesterol (% Dec.), decrease versus ovariectomized controls (ovariectomized rats; 0.1 mg/kg PO) | Uterine EPO (Vmax), eosinophil peroxidase (ovariectomized rats; 0.1 mg/kg PO) | Uterine Wt. (% Inc.), uterine weight % increase versus the ovariectomized controls (ovariectomized rats; [2]) | Effect on serum cholesterol (ovariectomized rats; oral, compared to ovariectomized animals) | Effect on uterine weight (ovariectomized rats; oral, compared to ovariectomized animals or EE2) | Eosinophil infiltration into the uterus (ovariectomized rats; oral, stromal layer of uteri) | Serum cholesterol (% Dec.), decrease versus ovariectomized controls (ovariectomized rats; 1 mg/kg PO) | Uterine EPO (Vmax), eosinophil peroxidase (ovariectomized rats; 1 mg/kg PO) | Uterine Wt. (% Inc.), uterine weight % increase versus the ovariectomized controls (ovariectomized rats; 1 mg/kg PO) | Serum cholesterol (% Dec.), decrease versus ovariectomized controls (ovariectomized rats; 10 mg/kg PO) | Uterine EPO (Vmax), eosinophil peroxidase (ovariectomized rats; 10 mg/kg PO) | Uterine Wt. (% Inc.), uterine weight % increase versus the ovariectomized controls (ovariectomized rats; 10 mg/kg PO) | IC50 [1] [nM]
C#C[C@]1(O)CC[C@H]2[C@@H]3CCc4cc(O)ccc4[C@H]3CC[C@@]21C [EE2, 17-α-Ethynyl-estradiol, reference compound] | 87.5* % | 133.8* | 128.0* % | caused a decrease in serum cholesterol | substantially greater than the uterine weight of the ovariectomized animals | substantial and expected increase in eosinophil infiltration |  |  |  |  |  |  | 
COc1cccc(-c2ccc3cc(OC)ccc3c2Cc2ccc(OCCN3CCCCC3)cc2)c1.Cl [Ex. 1, [2-(3-Methoxyphenyl)-6-methoxynaphthalen-1-yl][4-[2-(1-piperidinyl)ethoxy]phenyl]methane Hydrochloride] | 68.4* % | 7.5 | 30.9* % |  |  |  | 74.1* % | 5.4 | 31.6* % | 65.0* % | 6.0 | 37.2* % | 0.1
Cl.Oc1cccc(-c2ccc3cc(O)ccc3c2Cc2ccc(OCCN3CCCCC3)cc2)c1 [Ex. 2, [2-(3-Hydroxyphenyl)-6-hydroxynaphthalen-1-yl][4-[2-(1-piperidinyl)ethoxy]phenyl]methane Hydrochloride] | 6.6% | 4.8 | 37.6* % |  |  |  | 28.6% | 4.8 | 44.7* % | 46.6* % | 4.8 | 28.1* % | 
